Laboratory results taken from PMC4080980, “The pharmacokinetics of anthocyanins and their metabolites in humans” (British Journal of Pharmacology, 2014).
Marks after values point to notes of the source that are not given here.

Experiments:
Type in all cases: in vivo, humans
[1] = Urinary elimination/recovery after 500 mg oral bolus of 13C5-C3G; settings: urine, single 500 mg oral 13C5-C3G; for Tmax: male, human, po, 500 mg, urine collection interval, read-out: Time at maximum concentration; for Total recovery: 0-48 h; for Total recovery / Maximum concentration: mean ± SEM
Procedure: (§1) A detailed description of the clinical design was previously published ([Czank et al., 2013]). Briefly, a single 500 mg oral bolus dose of isotopically labelled C3G (^13C5-C3G) was fed to eight healthy male participants (body mass index, 18.5–30.5 kg·m^–2; aged 18–45 years) after an overnight fast (>8 h). Participants provided blood (baseline, 0.5, 1, 2, 4, 6, 24, 48 h), urine (individual voids between 0 and 6 h, total voids between 6–24 and 24–48 h), breath (baseline, 0.5, 1, 2, 4, 6, 24, 48 h) and faecal samples (all voids between 0–6, 6–24 and 24–48 h). The study was conducted at the Clinical Research and Trials Unit at the University of East Anglia according to the principles expressed in the Declaration of Helsinki and was approved by the Cambridgeshire 3 Research Ethics Committee (REC ref: 10/H0306/42) and registered at clinicaltrials.gov as NCT01106729.
(§2) Serum, urine and faecal samples were extracted by SPE and analysed by HPLC-ESI-MS/MS as recently described ([Czank et al., 2013]). The extraction efficiency was established as 87 ± 11% (coefficient of variation, CV; 6.8 ± 0.7%) for serum, 88 ± 18% (CV, 7.9 ± 0.8%) for urine and 81 ± 21% (CV, 14.1 ± 1.2%) for faeces (n = 3 replicates for each analyte). Sample extracts (5 μL) were injected onto a Kinetex PFP column (Phenomonex) and separated using an Agilent 1200 series HPLC with a QTrap 4000 linear ion trap mass spectrometer (ABSciex, Warrington, UK). […] Metabolite identification was performed by multiple reaction monitoring (MRM) optimized for the detection of pure standards with m/z of the parent and daughter fragments adjusted to +2,+3,+5 amu to allow identification of the ^13C-labelled metabolites derived from the B-ring, A-ring or the parent structure respectively. Metabolites were confirmed on the basis of retention time (using authentic and synthesized standards where possible) and three or more ion transitions. The HPLC-ESI-MS/MS method was validated for linearity and precision across all metabolites. Six point standard curves ranging from 1.25 to 20 μM were constructed from analytical standards and injected six times. The precision was established as 1.4–11.0% and linearity of the standard curves was established as r^2 = 0.991–1.000 (CV, 0.2%) across the identified metabolites.
(§3) Pharmacokinetic modelling of metabolites in the serum was performed with the PKSolver ‘add-on’ for Excel 2010 (Microsoft, […], USA) ([Zhang et al., 2010]) using non-compartmental analysis with the AUC calculated using the trapezoidal rule. Pharmacokinetic parameters were established for each individual analyte and presented as mean ± SEM. Urine samples collected during the first 6 h post-bolus were grouped together to the nearest hour time point (i.e. samples were not pooled but individual concentrations were averaged post-quantification) for graphical representation and to calculate total cumulative recovery. The concentration of metabolites was converted to amount recovered from urine by accounting for the molecular weight of the individual ^13C-labelled metabolites and the volume of the individual participants void and averaged across participants. Recovery of metabolites in the faeces was established from the molecular weight of the ^13C-labelled metabolite and the weight of the individual participants void adjusting for faecal water content as previously described ([Czank et al., 2013]). Urine and faecal recovery amounts are presented as mean ± SEM (n = 8), unless otherwise stated.

[2] = Faecal recovery after 500 mg oral bolus of 13C5-C3G; settings: faeces, 500 mg oral 13C5-C3G; for Recovery 24–48 h / Recovery 6–24 h: mean ± SEM; for Recovery 0–6 h: 0–6 h (only 2 participants provided voids)
Procedure: The study was conducted at the Clinical Research and Trials Unit at the University of East Anglia according to the principles expressed in the Declaration of Helsinki and was approved by the Cambridgeshire 3 Research Ethics Committee (REC ref: 10/H0306/42) and registered at clinicaltrials.gov as NCT01106729.
Sample extracts (5 μL) were injected onto a Kinetex PFP column (Phenomonex) and separated using an Agilent 1200 series HPLC with a QTrap 4000 linear ion trap mass spectrometer (ABSciex, Warrington, UK). […] Metabolite identification was performed by multiple reaction monitoring (MRM) optimized for the detection of pure standards with m/z of the parent and daughter fragments adjusted to +2,+3,+5 amu to allow identification of the ^13C-labelled metabolites derived from the B-ring, A-ring or the parent structure respectively. […] The HPLC-ESI-MS/MS method was validated for linearity and precision across all metabolites.
Pharmacokinetic parameters were established for each individual analyte and presented as mean ± SEM. Urine samples collected during the first 6 h post-bolus were grouped together to the nearest hour time point (i.e. samples were not pooled but individual concentrations were averaged post-quantification) for graphical representation and to calculate total cumulative recovery. The concentration of metabolites was converted to amount recovered from urine by accounting for the molecular weight of the individual ^13C-labelled metabolites and the volume of the individual participants void and averaged across participants. […] Urine and faecal recovery amounts are presented as mean ± SEM (n = 8), unless otherwise stated.

[3] = Serum pharmacokinetics after 500 mg oral bolus of 13C5-C3G (HPLC-ESI-MS/MS, non-compartmental analysis); settings: for half-life / Tmax / Cmax / AUC(0-t) / AUC0-48: serum; for half-life / t1/2: serum elimination half-life; for half-life / Tmax / Cmax / AUC(0-t) / t1/2 / AUC0-48: single 500 mg oral 13C5-C3G; for half-life / Tmax / AUC(0-t) / t1/2 / AUC0-48: mean ± SEM; for Cmax: healthy men, mean ± SEM of participants in whom detected; for AUC(0-t) / AUC0-48: trapezoidal rule; for AUC(0-t): read-out: AUC0-48
Procedure: as §1, §2, §3

[4] = male, human, po, 500 mg, read-out: tmax

Compound: O=C(O)c1ccc(O)cc1
- Tmax [1]: 1 to 2 h
- Total recovery [1]: 13.2 ± 3.7 µg
- Maximum concentration [1]: 49 ± 11 nM
- Recovery 24–48 h [2]: 22.0 ± 11.6 ^g μg

Compound: O=C(O)c1cccc(O)c1O [2,3-Dihydroxybenzoic acid]
- Recovery 24–48 h [2]: 440.4 ± 381.8 ^h μg

Compound: COc1ccc(C(=O)O)c(O)c1 [2-Hydroxy-4-methoxybenzoic acid]
- Tmax [1]: 3 to 4 h
- Total recovery [1]: 64.6 µg
- Maximum concentration [1]: 172 nM
- Recovery 6–24 h [2]: 1.4 ^b μg
- Recovery 24–48 h [2]: 273.3 ± 272.7 ^h μg

Compound: O=Cc1ccc(O)c(O)c1 [3,4-Dihydroxybenzaldehyde]
- Tmax [1]: 0 to 1 h
- Total recovery [1]: 6.3 ± 2.6 µg
- Maximum concentration [1]: 24 ± 7 nM
- Maximum concentration ([1]; listed as 3,4-dihydroxybenzaldehyde): 24 nM
- Recovery 6–24 h [2]: 3.4 ± 3.8 ^h μg
- Recovery 24–48 h [2]: 5.1 ± 1.8 ^i μg

Compound: O=C(O)Cc1ccc(O)c(O)c1 [3,4-Dihydroxyphenylacetic acid]
- Tmax [1]: 24 to 48 h
- Total recovery [1]: 28.0 µg
- Maximum concentration [1]: 82 nM
- Recovery 0–6 h [2]: 2.0 ^b μg
- Recovery 6–24 h [2]: 10.1 ± 4.0 ^e μg
- Recovery 24–48 h [2]: 12.8 ± 7.5 ^c μg

Compound: O=Cc1ccc(O)cc1 [4-Hydroxybenzaldehyde]
- half-life ([3]; male, human, po, 500 mg): 17.9 ± 8.8 h
- Tmax [3, 4]: 5.6 ± 3.1 h
- Cmax ([3]; male, human, po, 500 mg): 667 ± 653 nM
- AUC(0-t) ([3]; male, human): 0.663 ± 0.505 µM·h
- Tmax [1]: 5 to 6 h
- Total recovery [1]: 10.0 ± 9.0 µg
- Maximum concentration [1]: 97 ± 94 nM
- Recovery 6–24 h [2]: 0.8 ± 0.8 ^h μg
- Recovery 24–48 h [2]: 0.1 ^b μg

Compound: O=C(O)Cc1ccc(O)cc1 [4-Hydroxyphenylacetic acid]
- Tmax [1]: 4 to 5 h
- Total recovery [1]: 50.0 ± 2.0 µg
- Maximum concentration [1]: 391 ± 113 nM
- Recovery 6–24 h [2]: 7.3 ^b μg
- Recovery 24–48 h [2]: 55.4 ^b μg

Compound: COc1ccc(C=O)cc1 [4-Methoxybenzaldehyde]
- Recovery 6–24 h [2]: 20.7 ^b μg

Compound: COc1cc(/C=C/C(=O)O)ccc1O [A-ring-derived ferulic acid]
- t1/2 [3]: 96.5 ± 73.4 h
- Recovery 6–24 h [2]: 469.7 µg

Compound: O=C(O)c1ccc(OC2OC(C(=O)O)C(O)C(O)C2O)cc1 (centres unmarked) [Benzoic acid-4-glucuronide]
- half-life ([3]; male, human, po, 500 mg): 17.1 ± 3 h
- Tmax [3, 4]: 10.9 ± 3.4 h
- Cmax ([3]; male, human, po, 500 mg): 74 ± 20 nM
- AUC(0-t) ([3]; male, human): 1.47 ± 0.489 µM·h
- Tmax [1]: 4 to 5 h
- Total recovery [1]: 53.1 ± 18.1 µg
- Maximum concentration [1]: 129 ± 47 nM
- Recovery 0–6 h [2]: 1.5 ^b μg
- Recovery 6–24 h [2]: 6.8 ± 3.0 ^c μg
- Recovery 24–48 h [2]: 14.8 ± 8.0 ^i μg

Compound: O=C(O)/C=C/c1ccc(O)c(O)c1 [Caffeic acid]
- Recovery 6–24 h [2]: 25.2 ^b μg
- Recovery 24–48 h [2]: 354.6 ± 125.0 ^h μg

Compound: COc1cc(/C=C/C(=O)O)ccc1O [Ferulic acid]
- Tmax [3, 4]: ~8 h
- AUC(0-t) ([3]; male, human): 1.82 ± 1.05 µM·h
- time of detection after consumption ([3]; serum and urine samples): ≤ 4 h
- Tmax [3]: 8.2 ± 4.1 h
- Recovery 6–24 h ([2]; listed as B-ring-derived ferulic acid): 2373.1 µg

Compound: O=C(O)CNC(=O)c1ccccc1 [Hippuric acid]
- half-life ([3]; male, human, po, 500 mg): 95.6 ± 77.8 h
- Tmax [3, 4]: ~16 h
- Cmax ([3]; male, human, po, 500 mg): 1960 ± 1390 nM
- Tmax [3]: 15.7 ± 4.1 h
- Tmax [1]: 6 to 24 h
- Total recovery [1]: 2415.6 ± 2223.0 µg
- Maximum concentration [1]: 5417 ± 4906 nM
- Maximum concentration ([1]; listed as hippuric acid): 5417 nM
- Recovery 6–24 h [2]: 12.0 ± 11.4 ^g μg
- Recovery 24–48 h [2]: 27.5 ± 27.4 ^h μg

Compound: COc1ccc(C(=O)O)cc1OC1OC(C(=O)O)C(O)C(O)C1O (centres unmarked) [IsoVA-3-glucuronide]
- t1/2 [3]: 1.6 ± 0.2 h
- Cmax [3]: 35 ± 5 nM
- Tmax [3]: 4.3 ± 0.6 h
- AUC0-48 [3]: 0.103 ± 0.013 µM·h
- Total recovery [1]: 526.8 ± 92.2 µg
- Maximum concentration [1]: 699 ± 90 nM
- Recovery 0–6 h [2]: 1.8 ^b μg
- Recovery 6–24 h [2]: 1.3 ^b μg
- Recovery 24–48 h [2]: 12.7 ± 10.9 ^h μg

Compound: COc1ccc(C(=O)O)cc1OS(=O)(=O)O [IsoVA-3-sulfate]
- Total recovery [1]: 183.2 ± 93.1 µg
- Maximum concentration [1]: 822 ± 557 nM
- Recovery 6–24 h [2]: 0.6 ± 0.3 ^h μg
- Recovery 24–48 h [2]: 176.1 ± 174.7 ^h μg

Compound: COc1ccc(C(=O)O)cc1O [IsoVA]
- Cmax [3]: 195 nM
- Tmax [3]: 2.0 h
- AUC0-48 [3]: 0.189 µM·h
- Total recovery [1]: 79.5 ± 54.2 µg
- Maximum concentration [1]: 212 ± 130 nM
- Recovery 6–24 h [2]: 11.0 ^b μg
- Recovery 24–48 h [2]: 8.5 ^b μg

Compound: COC(=O)c1ccc(O)c(OC)c1 [Methyl vanillate]
- Recovery 6–24 h [2]: 35.1 ^b μg

Compound: COC(=O)c1ccc(O)c(O)c1 [Methyl-3,4-dihydroxybenzoate]
- half-life ([3]; male, human, po, 500 mg): 21.6 ± 5.9 h
- Tmax [3, 4]: 8.4 ± 5.7 h
- Cmax ([3]; male, human, po, 500 mg): 12 ± 5 nM
- AUC(0-t) ([3]; male, human): 0.171 ± 0.07 µM·h
- Tmax [1]: 3 to 4 h
- Total recovery [1]: 20.7 ± 8.0 µg
- Maximum concentration [1]: 108 ± 39 nM
- Recovery 6–24 h [2]: 166.6 ± 100.6 ^g μg
- Recovery 24–48 h [2]: 92.4 ± 49.4 ^f μg

Compound: O=C(O)c1ccc(O)c(OC2OC(C(=O)O)C(O)C(O)C2O)c1 (centres unmarked) [PCA-3-glucuronide]
- half-life ([3]; male, human, po, 500 mg): 18 ± 15.6 h
- Tmax [3, 4]: 2.7 ± 1 h
- Cmax ([3]; male, human, po, 500 mg): 11 ± 3 nM
- AUC(0-t) ([3]; male, human): 0.06 ± 0.038 µM·h
- Tmax [1]: 1 to 2 h
- Total recovery [1]: 197.7 ± 41.2 µg
- Maximum concentration [1]: 301 ± 72 nM
- Recovery 6–24 h [2]: 22.9 ± 22.0 ^g μg
- Recovery 24–48 h [2]: 49.0 ^b μg

Compound: O=C(O)c1ccc(OS(=O)(=O)O)c(O)c1 [PCA-4-sulfate]
- Total recovery [1]: 492.4 ± 193.0 µg
- Maximum concentration [1]: 1244 ± 333 nM
- Recovery 6–24 h [2]: 23.0 ± 18.1 ^g μg
- Recovery 24–48 h [2]: 12.0 ± 10.2 ^g μg

Compound: COc1cc(-c2[o+]c3cc(O)cc(O)c3cc2OC2OC(CO)C(O)C(O)C2O)ccc1O (centres unmarked) [Peonidin-3-glucoside]
- Tmax [1]: 1 to 2 h
- Total recovery [1]: 22.9 ± 10.6 µg
- Maximum concentration [1]: 76 ± 43 nM

Compound: COc1cc(C(=O)O)ccc1OS(=O)(=O)O [VA-4-sulfate]
- Total recovery [1]: 449.1 ± 112.4 µg
- Maximum concentration [1]: 1682 ± 899 nM
- Recovery 0–6 h [2]: 0.6 ^b μg
- Recovery 24–48 h [2]: 69.0 ± 39.1 ^g μg
